# Laboratory results reported in US8436021B2, “Pharmaceutical composition for treating and/or preventing a pathology associated with an obsessional behavior or with obesity” (priority 2002, dated 2013).
# Legend:
# Assay type in all cases: in vivo, mouse
# leptine = test: Plasma leptine rates after administration of NaCl or MDMA; settings: single administration MDMA 10 mg/kg, wild or mutant mice; p=0.95
# Procedure: The data represents the average±the standard deviation from the average of the leptine rates of the plasma expressed in ng/mL after the administration of NaCl (0.9%) or of MDMA (10 mg/kg) in the wild (+/+) or the disabled (−/−) mice for the gene coding for the 5-HT4 receptor, aged six to 10 months on the average. **p<0.01 significant effect of the genotype after a variance analysis (ANOVA) followed by an F test of Scheffé.
# 5-HT4 receptor [1] = test: Ingestion of food after 24 h food deprivation and i.p. drug injection (protocol of Lucas et al., 1998); settings: for diminution of ingestion of food vs NaCl-treated mice of same genotype / effect on ingestion of food vs NaCl-treated mice of same genotype: MDMA 10 mg/kg, RS 39604 0.5 mg/kg i.p.; for effect on ingestion of food vs NaCl-treated mice of same genotype: 3 h after administration
# Procedure: Each drug used to treat the wild mice disabled for the gene coding for the 5-HT4 receptor was diluted extemporaneously in a saline solution of NaCl (0.9%) and injected in a systemic manner (i.p.). The injection volume of each treatment was 200 μL for 30 g. The wild mice or those disabled for the 5-HT4 receptor (n=35) received the following treatments: NaCl, MDMA (or ecstasy or 3,4-N-methylene dioxymethamphetamine, SIGMA, 10 mg/kg), RS 39604, […]/MDMA.
# (§1) The MDMA (10 mg/kg, Sigma, user license 9900431 S, V. Compan) and RS 39604 (0.5 mg/kg), antagonist of the 5-HT4 receptor, were administered by themselves or in a combined treatment to the wild mice or those deprived of the 5-HT4 receptor (n=12-17 by genotype and pharmacological products).
# Ingestion of food by the wild mice and the mice disabled for the gene coding for the 5-HT4 receptor was evaluated in accordance with the test protocol described by Lucas et al., 1998. The different mice were isolated for a habituation period of three days in the presence of food and water supplied ad libitum during which the weights of the mice and of the food consumed were measured daily at the same hour. On the fourth day the mice were deprived of their food for 24 hours. The drugs were injected such as NaCl after the food deprivation period to determine the effect of the different treatments on ingestion of food. Food was reintroduced into each cage after an interval of 10 min for the other treatments. Three successive weighings of the food were then carried out 30 min, 1 h and 3 h after the reintroduction of the food.
# 5-HT4 receptor [2] = test: Taking of food in mice nourished ad libitum (dose selection for RS 39604); settings: 0.5 mg/kg, not illustrated
# Procedure: as §1
# 5-HT4 receptor [3] = test: Constraint stress (forced immobilization 110 min): ingestion of food and weight; settings: RS 39604 1 mg/kg, not shown
# Procedure: Each of the tests was divided into three phases: A period of habituation (7 days), the day of the constraint stress (immobilization for 110 min) and a recovery stage (10 days). The mice were divided into a control group and a constraint group. On the stress day the wild mice disabled for the gene coding for the 5-HT4 receptor received an injection of NaCl […], 1 mg/kg of RS 39604, antagonist of the 5-HT4 receptor. […] Ingestion of food was then measured 2 h 30 min, 3 and 5 h and each day during the recovery period.
SMILES,rates of leptine in plasma (leptine),"diminution of ingestion of food vs NaCl-treated mice of same genotype (5-HT4 receptor [1]; mice lacking the 5-HT4 receptor (−/−), 30 min after administration) [%]","diminution of ingestion of food vs NaCl-treated mice of same genotype (5-HT4 receptor [1]; mice lacking the 5-HT4 receptor (−/−), 1 h after administration) [%]",effect on ingestion of food vs NaCl-treated mice of same genotype (5-HT4 receptor [1]; mice lacking the 5-HT4 receptor (−/−)),"diminution of ingestion of food vs NaCl-treated mice of same genotype (5-HT4 receptor [1]; wild mice (+/+), 30 min after administration, 24 h food deprivation) [%]","diminution of ingestion of food vs NaCl-treated mice of same genotype (5-HT4 receptor [1]; wild mice (+/+), 1 h after administration, 24 h food deprivation) [%]","effect on ingestion of food vs NaCl-treated mice of same genotype (5-HT4 receptor [1]; wild mice (+/+), 24 h food deprivation)",taking of food vs mice treated with NaCl or other dosages (5-HT4 receptor [2]; mutant animals for the 5-HT4 receptors),taking of food vs mice treated with NaCl or other dosages (5-HT4 receptor [2]; nourished wild mice ad libitum),"effect of treatment alone on ingestion of food (statistical analysis of genotype, treatment, interaction) (5-HT4 receptor [1]; RS 39604 0.5 mg/kg i.p. alone, wild and mutant mice, 24 h food deprivation)",ingestion of food after constraint stress preceded by injection (5-HT4 receptor [3]; wild female mice),weight losses after constraint stress vs NaCl-treated animals (5-HT4 receptor [3]; wild mice)
"CNC(C)Cc1ccc2c(c1)OCO2 (stereo not drawn) [MDMA, 3,4-N-methylene dioxymethamphetamine]",does not modify the rates of leptine,−69.07,−68.49,no longer observed,−95.38,−88.56,absent,–,–,–,–,–
COc1cc(COc2cc(N)c(Cl)cc2C(=O)CCC2CCN(CCNS(C)(=O)=O)CC2)cc(OC)c1 [RS 39604],–,–,–,–,–,–,–,without effect,increase of the taking of food,does not reveal significant,not modified,reduced the weight losses
